According to patent US6428983B1, “Histone deacetylase as target for antiprotozoal agents” (Merck & Co., priority 1995, dated 2002):
pIC50: −log10 of the molar value.

Columns and labels:
[1] = system: HeLa cell histones; assay: Histone acetylation state in HeLa cells (AUT gel electrophoresis); format: cell-based, human; conditions: HeLa cells treated 4 hrs, FIG. 1, relative to untreated cells
Method: About 2×10^7 HeLa cells growing at 37 C were treated with various compounds in the standard tissue culture medium (MEM containing 10% fetal calf serum) for 4 hrs. Cells were then removed from the flask by scraping in PBS in a total volume of about 10 mls. The cells were washed twice in PBS and resuspended in about 3 mls lysis buffer (Lysis buffer; 0.45% Nonidet® P-40, 10 mM tris, 10 mM NaCl, 5 mM MgCl, 0.1 mM EGTA, 0.1 mM PMSF). The suspension was mixed by vortexing for 10 seconds, incubated on ice for 15 minutes and nuclei were pelleted by centrifugation through a 1 ml cushion of 30% sucrose in lysis buffer at 1300×g for 10 minutes. The supernatant was discarded and the nuclei were then resuspended in 1.0 ml water. H2SO4 was added to a final concentration of 0.4M and the nuclear suspension was incubated on ice for 30 min. and then pelleted by centrifugation at 13,000×g for 10 minutes. The pellets were discarded, and ten volumes of ice cold acetone was added to the supernatant proteins and left overnight at −20° C. to precipitate soluble proteins. These proteins (predominantly histones) were pelleted by centrifugation at 10,000×g for 15 minutes at 4° C. and resuspended in AUT sample buffer (Sample buffer: 0.9M acetic acid, 0.02% w/v methyl green) in preparation for gel electrophoresis.
Acid urea triton (AUT) polyacrylamide gels were performed according to the methods of Alfageme et al (1974) J. Biol. Chem. 249, 3729, with modifications as described in Lennox and Cohen (Methods in Enzymology, 170, 532-549). For optimal resolution of HeLa cell and Plasmodium falciparum histones the separation gel contained 7.5M urea, 12% acrylamide, 0.38% Triton® X 100, 0.08% bis acrylamide, and 0.87M acetic acid. The loading gels contained 7.5M urea, 0.37% Triton X 100, 6% acrylamide, 0.04% bis acrylamide and 0.87M acetic acid. […] Gels were either stained with Coomassie Brilliant Blue R in 7% acetic acid, 20% methanol and then destained in 7% acetic acid and 20% methanol, or treated with Enlightening (from New England Nuclear), dried and radiolabel detected by fluorography.

[2] = system: P. falciparum histones; assay: Histone acetylation state in P. falciparum (14C acetate labeling, AUT gel); format: cell-based; conditions: infected red blood cells, 14C sodium acetate, 2 hours, FIG. 2
Method: Acid urea triton (AUT) polyacrylamide gels were performed according to the methods of Alfageme et al (1974) J. Biol. Chem. 249, 3729, with modifications as described in Lennox and Cohen (Methods in Enzymology, 170, 532-549). For optimal resolution of HeLa cell and Plasmodium falciparum histones the separation gel contained 7.5M urea, 12% acrylamide, 0.38% Triton® X 100, 0.08% bis acrylamide, and 0.87M acetic acid. The loading gels contained 7.5M urea, 0.37% Triton X 100, 6% acrylamide, 0.04% bis acrylamide and 0.87M acetic acid. Gels were run in 1M acetic acid. Gels were pre-electrophoresed at 350V for 1 hour and run at 450V for 3.5 hours. Gels were either stained with Coomassie Brilliant Blue R in 7% acetic acid, 20% methanol and then destained in 7% acetic acid and 20% methanol, or treated with Enlightening (from New England Nuclear), dried and radiolabel detected by fluorography.
Approximately 1×10^9 P. falciparum infected red blood cells (about 60% parasitized) were resuspended in 10 ml of RPMI 1640 containing various concentrations of test compounds and 250 μCi ^14C sodium acetate and incubated at 37° C. for 2 hours. The cells were then washed 3 time with PBS and histones were prepared as described below.
Histones were prepared according to the method of Cary et al (1994) Parasitology Research, 80, 255-258. […]

[3] = system: E. tenella; assay: In vitro antiparasitic activity against E. tenella; format: cell-based, Eimeria tenella
Description: (1) Generally following the procedure described in Crane, Schmatz, Stevens, Habbersett and Murray. Eimeria tenella: in vitro development in irradiated bovine kidney cells.(1984) Parasitology 88: 521-530.

[4] = system: histone deacetylase (E. tenella extract); assay: Histone deacetylase inhibition assay (Assay 1), E. tenella extract; format: biochemical, Eimeria tenella
Method: (§1) The standard assay contained in a total volume of 40 μL: 400 nmol HEPES-sodium, pH 7.4, 100 pmol of the substrate [AcGly-Ala-Lys(ε-^14C-Ac)-Arg-His-Arg-Lys(ε-^14C-Ac)-ValNH2] (see Kervabon et al (1979) FEBS Letters 106: 93-96) having a specific activity of approx. 114 mCi/mmol, and a source of histone deacetylase (HDAase) activity. The amount of HDAase added was chosen such that ≦20% of the substrate was consumed during the assay. The reaction was initiated by enzyme addition and allowed to proceed for 60 min at 41°. At 60 min, the reaction was terminated by the addition of a 50% slurry of Amberlite® AG 50W×4 cation exchange resin, sodium form (200-400 mesh) in 25 mM sodium acetate buffer, pH 4.2 (200 μL). The resin binds both remaining substrate and the (partially) deacetylated peptidyl products. The quenched reaction was then incubated for at least 30 min at 25° with occasional mixing, diluted with additional 25 mM sodium acetate buffer, pH 4.2 (760 μL; final volume 1000 μL), incubated for a minimum of an additional 30 min at 25° with occasional mixing, and then centrifuged at 10,000×g for 1 min. An aliquot of the supernatant (800 μL) containing the enzymatically released ^14C-acetate was removed, mixed with Aquasol 2 liquid scintillation counter (LSC) cocktail (10 mL), and counted in a Beckman model LS-5801 LSC. […]

[5] = system: histone deacetylase (chicken liver extracts); assay: Histone deacetylase inhibition assay (Assay 1), chicken liver extract; format: biochemical; conditions: Assay 1, chicken liver extracts
Method: as §1

[6] = molecular target: histone deacetylase (E. tenella lysate); assay: Competitive binding assay with 3H-N-desmethoxyapicidin, E. tenella S100 lysate; conditions: 3H-N-desmethoxyapicidin ligand
Method: E. tenella oocysts. Approximately 2×10^9 E. tenella oocysts are suspended in 5 ml of PBS/0.1 mM PMSF, 4 mls of an equal mixture (vol/vol) of 4.0 and 1.0 mm glass beads is added. The glass bead-oocyst mixture is then shaken for 20 minutes to cause disruption of the oocysts. The efficiency of breakage is checked microscopically. The resulting homogenate is separated from the glass beads and centrifuged at 3000×g for 10 min. The supernatant is then subjected to an additional centrifugation at 100,000 g for 1 hr. The pellet is discarded and the supernatant, referred to as the E. tenella S100 fraction, is retained for binding assays. After estimating the protein concentration, the supernatant (S100) is aliquoted and frozen at −80 C.
(§2) Each assay tube contains a final volume of 1 ml with 1.3 ng/ml of ^3H-N-desmethoxyapicidin, 150-200 μg of the appropriate S100 supernatant and concentrations of potential HDA inhibitors from 0.001-10 μg/ml.
(§3) (i) labeled substrate. […]
(§4) Stock solutions of potential HDA inhibitors (ii) are diluted into 50 mM HEPES/Triton® buffer to achieve a final concentration of test compound in the range of 0.001-10 μM. ^3H-N-desmethoxyapicidin is added to a final concentration of 1.3 ng/ml. […] The filter is then dried and counted in scintillant.

[7] = system: histone deacetylase (chicken liver lysate); assay: Competitive binding assay with 3H-N-desmethoxyapicidin, chick liver S100 lysate; conditions: 3H-N-desmethoxyapicidin ligand
Method: Chick Liver. Livers from 3-5 three week old chickens are collected, rinsed in ice cold phosphate buffered saline (pH 7.4), diced into small pieces and rinsed again 3-4 times with ice cold 50 mM N-2-hydroxyethylpiperazine-N′-2-ethanesulfonic acid (HEPES) (pH 7.4) containing 0.1 mM phenylmethanesulfonyl fluoride (PMSF). The tissue is then resuspended in HEPES buffer, homogenized in a polytron homogenizer and centrifuged at 3000×g for 10 min. The supernatant is then subjected to an additional 100,000 g centrifugation for 1 hour. The pellet and the floating layer of lipid are discarded and the supernatant, referred to as the chick liver S100 fraction, is retained for binding assays. After estimating the protein concentration, the supernatant (S100) is aliquoted and frozen at −80 C.
as §2, §3, §4

[8] = system: P. falciparum; assay: In vitro antiparasitic activity against P. falciparum; format: cell-based
Description: (2) Generally following the procedure described in Desjardins et al, “Quantitative Assessment of Antimalarial Activity In Vitro by a Semiautomated Microdilution Technique” Antimicrobial Agents and Chemotherapy 1979, 16:710-718.

## C[C@@H]1NC(=O)[C@H]2CCCN2C(=O)[C@H](CCCCCC(=O)[C@@H]2CO2)NC(=O)[C@@H](C)NC1=O [HC-toxin]
[1]
  Hyperacetylation of HeLa cell histones (shift in histone gel profile): cause a distinct shift in the histone gel profiles

## CCC(=O)CCCCC[C@@H]1NC(=O)[C@H]2CCCCN2C(=O)[C@H]([C@@H](C)CC)NC(=O)[C@H](Cc2cn(OC)c3ccccc23)NC1=O [apicidin, Apicidin]
[1]
  Hyperacetylation of HeLa cell histones (shift in histone gel profile): cause a distinct shift in the histone gel profiles
[2]
  Hyperacetylation of P. falciparum histones: cause hyperacetylation

## CC(/C=C/C(=O)NO)=C\[C@@H](C)C(=O)c1ccc(N(C)C)cc1 [trichostatin]
[1]
  Hyperacetylation of HeLa cell histones (shift in histone gel profile): cause a distinct shift in the histone gel profiles
[2]
  Hyperacetylation of P. falciparum histones: cause hyperacetylation

## CC(/C=C/C(=O)O)=C\[C@@H](C)C(=O)c1ccc(N(C)C)cc1 [trichostatic acid]
[3]
  minimum inhibitory concentration against E. tenella: not active
[4]
  IC50 in enzyme inhibition assay, E. tenella extract: inactive
[5]
  IC50 in enzyme inhibition assay, chicken liver extract: inactive
[6]
  pIC50: < 6.00
  IC50 in binding assay, E. tenella lysate: no activity
[7]
  IC50 in binding assay, chicken liver lysate: no activity
[8]
  IC50 against P. falciparum: not active
